From publication PMC12292628, “Inhibitory Effects of 3-(4-Hydroxy-3-methoxyphenyl) Propionic Acid on Amyloid β-Peptide Aggregation In Vitro” (Biomedicines, 2025)

Molecular target: T1, Aβ42 (amyloid-β protein) (Homo sapiens, UniProt P05067)
T1 construct: gene APP; synthetic Aβ42 peptide, low-molecular-weight (LMW, monomeric) Aβ42
Experiment: ThT fluorescence aggregation assay with purified LMW Aβ[…] (no seeds); electron microscopy
Format: biochemical

T1 sequence (P05067 672-713 limits assumed): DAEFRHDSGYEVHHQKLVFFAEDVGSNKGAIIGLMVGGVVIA

## COc1cc(CCC(=O)O)ccc1O [HMPA, 3-(4-Hydroxy-3-methoxyphenyl) propionic acid]
  EC50: 6.37 mM
